# Calls of active or inactive are those of the source. The rule behind the calls is not given here.
# Columns and labels:
# [1] = Antiinflammatory activity in human THP1 cells assessed as inhibition of PMA-induced IL-1beta secretion at 10 uM preincubated for 2 hrs followed by PMA addition measured after 48 hrs by ELISA; type: functional; details: THP-1
# [2] = (§1) Antiinflammatory activity in human THP1 cells assessed as inhibition of PMA-induced MCP-1 secretion at 10 uM preincubated for 2 hrs followed by PMA addition measured after 48 hrs by ELISA; type: functional; details: THP-1
# THP-1 [3] = assay: (§2) Antiinflammatory activity in human THP1 cells assessed as inhibition of PMA-induced TNFalpha secretion at 10 uM preincubated for 2 hrs followed by PMA addition measured after 48 hrs by ELISA; type: functional
# [4] = Cytotoxicity against human THP1 cells assessed as cell viability at 20 uM after 48 hrs by tryphan blue dye exclusion assay relative to control; type: functional; details: THP-1, 48 h, read-out: Activity
# [5] = as §2; type: functional; details: THP-1
# THP-1 [6] = assay: Antiinflammatory activity in human THP1 cells assessed as inhibition of PMA-induced TNFalpha secretion preincubated for 2 hrs followed by PMA addition measured after 48 hrs by ELISA; type: functional, cell-based
# THP-1 [7] = assay: Antiinflammatory activity in human THP1 cells assessed as inhibition of PMA-induced MCP-1 secretion preincubated for 2 hrs followed by PMA addition measured after 48 hrs by ELISA; type: functional, cell-based
# THP-1 [8] = assay: Antiinflammatory activity in human THP1 cells assessed as inhibition of PMA-induced COX2 mRNA level preincubated for 2 hrs followed by PMA addition measured after 48 hrs by RT-PCR analysis; type: functional, cell-based
# THP-1 [9] = assay: Antiinflammatory activity in human THP1 cells assessed as inhibition of PMA-induced IL-1beta secretion preincubated for 2 hrs followed by PMA addition measured after 48 hrs by ELISA; type: functional, cell-based
# THP-1 [10] = assay: Inhibition of PMA-induced monocyte to macrophage differentiation in human THP1 cells assessed as reduction in cell adherence at 20 uM preincubated for 2 hrs followed by PMA addition measured after 48 hrs by phase contrast microscopic analysis; type: functional, cell-based
# THP-1 [11] = assay: as §1; type: functional
SMILES,inhibition at 10 µM [1] [%],inhibition at 10 µM [2] [%],inhibition (THP-1 [3]),viability at 20 µM [4] [%],inhibition at 10 µM [5] [%],inhibition (THP-1 [6]),inhibition (THP-1 [7]),inhibition (THP-1 [8]),inhibition (THP-1 [9]),inhibition (THP-1 [10]),inhibition (THP-1 [11])
CN1C(C(=O)/C=C/c2cn(-c3ccc(C(F)(F)F)cc3)nn2)=C(O)c2ccccc2S1(=O)=O,17.7,12.7,inactive,96.6,,,,,,,
CN1C(C(=O)/C=C/c2cn(CC(=O)Nc3ccc(F)cc3)nn2)=C(O)c2ccccc2S1(=O)=O,42.4,41.4,,92.5,73.4,,,,,,
CN1C(C(=O)/C=C/c2cn(CC(=O)Nc3cccc(F)c3)nn2)=C(O)c2ccccc2S1(=O)=O,69.5,48.2,,96.5,70.7,Dose-dependent effect,Dose-dependent effect,Active,Dose-dependent effect,inactive,
COc1cccc(-n2cc(/C=C/C(=O)C3=C(O)c4ccccc4S(=O)(=O)N3C)nn2)c1,42.6,,inactive,94.2,,,,,,,inactive
CN1C(C(=O)/C=C/c2cn(CC(=O)Nc3ccc(F)cc3Br)nn2)=C(O)c2ccccc2S1(=O)=O,63.8,65.4,,93.6,59.8,,,,,,
Cc1ccc(-n2cc(/C=C/C(=O)C3=C(O)c4ccccc4S(=O)(=O)N3C)nn2)cc1,50.2,45.2,inactive,94.3,,,,,,,
CN1C(C(=O)/C=C/c2cn(-c3ccccc3Br)nn2)=C(O)c2ccccc2S1(=O)=O,45.9,16.2,,94.4,13.7,,,,,,
Cc1ccc(-c2cc(C(F)(F)F)nn2-c2ccc(S(N)(=O)=O)cc2)cc1 [CELECOXIB],31.1,20.1,,,37.4,,,,,,
CCCCCCCCn1cc(/C=C/C(=O)C2=C(O)c3ccccc3S(=O)(=O)N2C)nn1,64.7,40.9,,92.3,2.9,,,,,,
CN1C(C(=O)/C=C/c2cn(CC(=O)Nc3ccc(C(F)(F)F)cc3)nn2)=C(O)c2ccccc2S1(=O)=O,91.1,81.1,,95.1,94.2,Dose-dependent effect,Dose-dependent effect,Active,Dose-dependent effect,inactive,
CN1C(C(=O)/C=C/c2cn(-c3ccc([N+](=O)[O-])cc3)nn2)=C(O)c2ccccc2S1(=O)=O,36.5,31.5,inactive,93,,,,,,,
CN1C(C(=O)/C=C/c2cn(-c3ccc(F)cc3)nn2)=C(O)c2ccccc2S1(=O)=O,43.9,58.9,inactive,95.3,,,,,,,
CN1C(C(=O)/C=C/c2cn(-c3ccccc3)nn2)=C(O)c2ccccc2S1(=O)=O,56.9,31.9,,94.2,24,,,,,,
COc1ccc(NC(=O)Cn2cc(/C=C/C(=O)C3=C(O)c4ccccc4S(=O)(=O)N3C)nn2)cc1,49.8,64.8,,94.5,62.9,,,,,,
CN1C(C(=O)/C=C/c2cn(-c3ccc(F)cc3F)nn2)=C(O)c2ccccc2S1(=O)=O,47.7,29.6,,96.2,11.2,,,,,,
CN1C(C(=O)/C=C/c2cn(CC(=O)NC3CCCCC3)nn2)=C(O)c2ccccc2S1(=O)=O,47.7,56.1,,95.2,39.7,,,,,,
CN1C(C(=O)/C=C/c2cn(-c3ccc(F)c(Cl)c3)nn2)=C(O)c2ccccc2S1(=O)=O,16.3,,inactive,94.3,,,,,,,inactive
COc1ccc(-n2cc(/C=C/C(=O)C3=C(O)c4ccccc4S(=O)(=O)N3C)nn2)cc1,53.9,58.9,inactive,94.4,,,,,,,
CN1C(C(=O)/C=C/c2cn(-c3cc([N+](=O)[O-])ccc3Cl)nn2)=C(O)c2ccccc2S1(=O)=O,61.8,67.1,,94.3,52.5,,,,,,
CN1C(C(=O)/C=C/c2cn(-c3cccc(Cl)c3)nn2)=C(O)c2ccccc2S1(=O)=O,37.3,5.4,inactive,96,,,,,,,
CN1C(C(=O)/C=C/c2cn(-c3ccccc3F)nn2)=C(O)c2ccccc2S1(=O)=O,40.2,,inactive,96.1,,,,,,,inactive
CN1C(C(=O)Nc2ccccn2)=C(O)c2ccccc2S1(=O)=O [PIROXICAM],21.8,11.4,,,25.8,,,,,,
CN1C(C(=O)/C=C/c2cn(-c3cccc([N+](=O)[O-])c3)nn2)=C(O)c2ccccc2S1(=O)=O,25.6,30.7,inactive,92.6,,,,,,,
CN1C(C(=O)/C=C/c2cn(CC(=O)Nc3ccccc3)nn2)=C(O)c2ccccc2S1(=O)=O,49.3,76.7,,96.2,33.3,,,,,,
CN1C(C(=O)/C=C/c2cn(CC(=O)Nc3c(F)cccc3F)nn2)=C(O)c2ccccc2S1(=O)=O,46.3,41.3,,95.6,31.3,,,,,,
CN1C(C(=O)/C=C/c2cn(-c3cccc(C(F)(F)F)c3)nn2)=C(O)c2ccccc2S1(=O)=O,23.9,,inactive,93.8,,,,,,,inactive
CN1C(C(=O)/C=C/c2cn(CC(=O)Nc3ccc(Cl)c(C(F)(F)F)c3)nn2)=C(O)c2ccccc2S1(=O)=O,93.6,88.4,,94.3,93.2,Dose-dependent effect,Dose-dependent effect,Active,Dose-dependent effect,inactive,

# From ChEMBL document CHEMBL3751784, “Synthesis of novel 1-substituted triazole linked 1,2-benzothiazine 1,1-dioxido propenone derivatives as potent anti-inflammatory agents and inhibitors of monocyte-to-macrophage differentiation” (2015)
